Patent US20240398783A1, “Compounds and Pharmaceutical Compositions Comprising Inhibitors of Amyloid Peptide Interactions with Glycosaminoglycans, Methods of Treatment and Use Thereof” (Gismo Therapeutics, Inc., priority 2021, published 2024)
Where a name gives a salt, the structure may show the parent alone. Read-outs that look alike come from different tables or passages of the source.

Legend:
[1] = molecular target: T1, Amyloid-beta(1-42) oligomer binding to purified human brain membranes (Homo sapiens, UniProt P05067); test: Inhibition of Amyloid-beta(1-42) oligomer binding to purified human brain cell membranes (ELISA); details: Abeta(1-42) oligomers, read-out: Abeta42/Membrane Activity (IC-50)
T1 construct: Beta-amyloid (1-42) was purchased from rPeptide (Cat. No. A1163); purchased rPeptide A1163
Protocol: (§1) Purified human brain cell membranes were prepared by differential centrifugation as follows. Five grams of frozen human brain postmortem tissue (obtained from University of Kentucky Alzheimer's Disease Center Tissue Bank) was homogenized in 50 ml HEPES-Buffered sucrose (0.32M sucrose, 4 mM HEPES pH7.4, protease inhibitors) with a motor driven glass-teflon homogenizer. After removing nuclear and cell debris by centrifugation of homogenates at 1,000×g for 10 min at 4 degree Celsius, post-nuclear supernatant was centrifuged at 100,000×g for 30 minutes to yield the crude membrane pellet. Crude membrane pellet was re-suspended in 0.32M sucrose, then centrifuged again at 100,000×g for 30 minutes to yield washed membrane pellet. Membrane pellet was resuspended in sterile PBS (pH7.4), quickly frozen, and kept in aliquots at −80 degrees Celsius. This preparation contains human brain cell membranes. Protein concentration was measured with BCA protein assay kit (Pierce Cat. No. 23227). Purified brain membranes were diluted to 0.01 mg/ml in PBS (pH 7.4) and then added to a 96 well polystyrene ELISA plate (NUNC Cat. No. 449824; 100 μl per well). Plates were incubated Over Night (ON) at 4 degrees Celsius. Following the incubation, the plate was washed consecutively, by immersion, with de-ionized water and PBS (pH 7.4). The ELISA plate was then blocked with nonfat milk (2%, 200 μl per well) for 2 hours at Room Temperature (RT). Following blocking, the plate was washed with de-ionized water then PBS (pH 7.4). GBAPs were dissolved and diluted in PBS (pH 6.5, supplemented with 0.1% BSA) at desired concentrations, added to the ELISA plates coated with brain membranes (100 μl per well) and incubated for 2 hours at RT with gentle shaking. Following incubation, the plate was washed with de-ionized water and three times with PBS (pH 6.5) plus Tween. Bound GBAP was detected by a monoclonal antibody specific for that GBAP, followed by incubation with secondary antibody conjugated to horseradish peroxidase (HRP). Antibody was diluted in PBS (pH6.5 supplemented with 1% BSA). Following each incubation with antibody, the plate was washed with de-ionized water and three times with PBS (pH6.5) wash buffer containing 0.1% Tween. The peroxidase substrate chromogen, TMB (Dako Cat. No. S1599) was added (100 μl per well) to the ELISA plate and incubated at room temperature. After 5 minutes ELISA Stop Solution (hydrochloric acid 1N, sulfuric acid 3N) was added (100 μl per well) to stop the peroxidase catalyzed colorimetric reaction. The Optical Density of the samples was measured at 450 nm using an ELISA plate reader (BioTek Synergy H1). Following color development, the % inhibition compared to control was determined. IC-50s were calculated using GraphPad Prism software.
(§2) The assay was performed as described in Example 49, with the following modifications. Following to coating the plates with purified human brain cell membranes, plates were washed as described. The compounds were dissolved in DMSO at 10 mM final concentration and further diluted prior to assay. DMSO concentration in the screening well was up to 2%. Individual compounds were co-incubated with Beta-amyloid peptides on plates coated with purified human brain membranes. Beta-amyloid (1-42) oligomers were prepared as described in Example 2. Beta-amyloid (1-40) from rPeptide (Cat No. A1153) was dissolved in DMSO, quickly frozen and kept in aliquots at −80 degrees Celsius. Beta-amyloid (1-42) oligomers or Beta-amyloid (1-40) dissolved in PBS (pH 6.5, supplemented with BSA, 0.1%) were added to the ELISA plate (100 μl per well) and incubated for 2 hours at RT with gentle shaking. Following the incubation, the plate was washed with de-ionized water and three times with PBS (pH 6.5) plus Tween. […]

[2] = molecular target: Tau binding to purified human brain membranes (Homo sapiens, UniProt P10636); test: Inhibition of Tau binding to purified human brain cell membranes (ELISA)
Protocol: as §1
The assay was performed as described in Example 49, with the following modifications.
Following to coating the plates with purified human brain cell membranes, plates were washed as described. The compounds were dissolved in DMSO at 10 mM final concentration and further diluted prior to assay. DMSO concentration in the screening well was up to 2%. Individual compounds were co-incubated with Tau on plates coated with purified human brain membranes. Tau purchased from rPeptide (Cat. No. T1001) was dissolved in DMSO (Sigma Cat. No. D2650), quickly frozen and kept in aliquots at −80 degrees Celsius. Tau dissolved in PBS (pH 6.5, supplemented with BSA, 0.1%) was added to the ELISA plate (100 μl per well) and incubated for 2 hours at RT with gentle shaking. Following the incubation, the plate was washed with de-ionized water and three times with PBS (pH 6.5) plus Tween. Bound Tau was detected by anti-Tau Monoclonal Antibody D-8 (Santa Cruz Cat. No. sc-166060), followed by secondary anti-IgG antibody conjugated to HRP (R&D System, Cat. No. HAF007). Following to color development with TMB, as described in Example 49, the Optical Density of the samples was measured at 450 nm using an ELISA plate reader. […]

[3] = molecular target: T2, Amyloid-beta(1-40) binding to purified human brain membranes (Homo sapiens, UniProt P05067); test: Inhibition of Amyloid-beta(1-40) binding to purified human brain cell membranes (ELISA); details: Abeta(1-40), read-out: Abeta40/Membrane Activity (IC-50)
T2 construct: Beta-amyloid (1-40) from rPeptide (Cat No. A1153) was dissolved in DMSO; purchased rPeptide A1153
Protocol: as §1, §2

T1 sequence (P05067 672-713): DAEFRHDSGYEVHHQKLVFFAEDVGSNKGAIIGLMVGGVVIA
Tau binding to purified human brain membranes, sequence (P10636 with tags, fused parts or gaps): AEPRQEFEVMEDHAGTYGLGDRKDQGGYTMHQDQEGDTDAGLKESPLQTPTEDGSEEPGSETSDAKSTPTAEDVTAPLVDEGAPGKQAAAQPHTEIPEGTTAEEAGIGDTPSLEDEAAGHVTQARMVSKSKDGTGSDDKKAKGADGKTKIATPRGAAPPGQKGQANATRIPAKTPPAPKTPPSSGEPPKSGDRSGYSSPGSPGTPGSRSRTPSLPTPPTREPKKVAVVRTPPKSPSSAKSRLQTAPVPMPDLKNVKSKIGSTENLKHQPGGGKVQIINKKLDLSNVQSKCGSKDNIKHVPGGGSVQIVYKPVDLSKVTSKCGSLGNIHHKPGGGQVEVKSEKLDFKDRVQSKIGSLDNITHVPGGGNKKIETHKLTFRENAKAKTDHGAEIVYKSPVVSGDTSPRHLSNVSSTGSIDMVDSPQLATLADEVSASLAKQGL
T2 sequence (P05067 672-711): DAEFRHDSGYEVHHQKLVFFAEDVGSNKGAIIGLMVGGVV

SMILES | IC50 [1] [µM] | IC50 [2] [µM] | IC50 [3] [µM] | IC50 ([2]; Tau, purified human brain membranes, read-out: Tau/Membrane Activity (IC-50)) [µM]
Clc1ccc2c(N/N=C/c3ccc(-n4cccn4)cc3)ccnc2c1 [Compound 3, (E)-4-((E)-(4-(1H-pyrazol-1-yl)benzylidene)hydrazono)-7-chloro-1,4-dihydroquinoline] | 11.5 | 8.82 |  | 
Clc1ccc2c(N/N=C/c3ccc(-n4ccnc4)nc3)ccnc2c1 [Compound 14, (E)-4-(2-((6-(1H-imidazol-1-yl)pyridin-3-yl)methylene)hydrazineyl)-7-chloroquinoline hydrochloride] | 6.03 | 1.86 | 18.4 | 
C/C(=N\Nc1ncnc2cc(Cl)ccc12)c1ccc(-n2cnc(C)c2C)nc1 [Compound 16, 7-chloro-4-(2-(1-(6-(4,5-dimethyl-1H-imidazol-1-yl)pyridin-3-yl)ethylidene)hydrazineyl)quinazoline phosphate] | 3.29 | 9.61 | 2.88 | 
C/C(=N\Nc1nncc2cc(Cl)ccc12)c1ccc(-n2cc(C)nc2C)nc1 [Compound 24, (E)-6-chloro-1-(2-(1-(6-(2,4-dimethyl-1H-imidazol-1-yl)pyridin-3-yl)ethylidene)hydrazineyl)phthalazine] | 6.67 |  | 24.5 | 2.56
Clc1ccc2c(N/N=C/c3ccc(-n4ccnc4)cc3)ccnc2c1 [Compound 38, 4-(2-(4-(1H-imidazol-1-yl)benzylidene)hydrazineyl)-7-chloroquinoline dihydrochloride] | 4.62 | 4.86 | 0.36 | 
Cc1ncn(-c2ncc(Nc3ncnc4cc(Cl)ccc34)cc2O)c1C [Compound 40, 5-((7-chloroquinazolin-4-yl)amino)-2-(4,5-dimethyl-1H-imidazol-1-yl)pyridin-3-ol phosphoric acid salt] | 4.36 | 65.1 |  | 
